# Assay results as given in patent publication US8324264B1, “Inhibitors of bacterial biofilms and related methods” (Sequoia Sciences, Inc., priority 2011, dated 2012).
# Structures can show the parent of a compound that is named as a salt.
# Tested on: E. coli biofilms
# Assay: Biofilm growth assay (spreading biofilm on semi-solid agar), E. coli
# Format: cell-based
# Conditions: Escherichia coli, biofilm growth assay, overnight 37° C., vs negative controls; Tables 1-5; read-out: E. coli: concentration that reduces the area of the spreading biofilm by greater than or equal to 85%
# How it was run: (§1)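 Values are compound concentrations (μg/ml) that cut the spreading-biofilm zone area by ≥85% relative to negative controls after overnight 37 °C growth from 5 μL central inoculum. E. coli plates: LB, 0.6% agar, 0.5% glucose; P. aeruginosa plates: M8 agar plus 0.2% glucose, 100 μM CaCl2, 1 mM MgSO4, 0.5% Casamino acids.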
row,Compound,IC85 [µg/mL]
1,"CC1(C)CC[C@]2(C(=O)Nc3nnc(N)s3)CC[C@]3(C)C(=CCC4[C@@]5(C)Cc6c(n[nH]c6N)C(C)(C)C5CC[C@]43C)C2C1 (stereo partly drawn) [Compound 71, (4aS,6aS,6bR,13aR)-12-Amino-N-(5-amino-1,3,4-thiadiazol-2-yl)-2,2,6a,6b,9,9,13a-heptamethyl-2,3,4,4a,5,6,6a,6b,7,8,8a,9,11,13,13a,13b,14,15b-octadecahydro-1H-chryseno[1,2-f]indazole-4-a-carboxamide]",2

# Tested on: not given
# Assay: not given
# Conditions: not given
row,Compound,melting point
1,"CC1(C)CC[C@]2(C(=O)O)CC[C@]3(C)C(=C(c4ccccc4N)CC4[C@@]5(C)Cc6c(n[nH]c6N)C(C)(C)C5CC[C@]43C)C2C1 (stereo partly drawn) (as salt: ammonium) [Example 23, (4aS,6aS,6bR,13aR)-12-Amino-15-(2-aminophenyl)-2,2,6a,6b,9,9,13a-heptamethyl-2,3,4,4a,5,6,6a,6b,7,8,8a,9,11,13,13a,13b,14,15b-octadecahydro-1H-chryseno[1,2-f]indazole-4-a-carboxylic acid]",210 to 230 °C (dec.)
2,"C[C@H]1[C@H](C)CC[C@]2(C(=O)O)CC[C@]3(C)C(=CCC4[C@@]5(C)Cc6c(n[nH]c6N)C(C)(C)[C@@H]5CC[C@]43C)[C@H]12 (stereo partly drawn) (as salt: ammonium) [Example 2, (4aS,6aS,6bR,13aR)-12-Amino-2,2,6a,6b,9,9,13a-heptamethyl-2,3,4,4a,5,6,6a,6b,7,8,8a,9,11,13,13a,13b,14,15b-octadecahydro-1H-chryseno[1,2-f]indazole-4-a-carboxylic acid]",258 to 278 °C
3,"CC1(C)CC[C@]2(C(=O)O)CC[C@]3(C)C(=C(c4cccc(O)c4)CC4[C@@]5(C)Cc6c(n[nH]c6N)C(C)(C)C5CC[C@]43C)C2C1 (stereo partly drawn) (as salt: ammonium) [Example 16, (4aS,6aS,6bR,13aR)-12-Amino-15-(3-hydroxyphenyl)-2,2,6a,6b,9,9,13a-heptamethyl-2,3,4,4a,5,6,6a,6b,7,8,8a,9,11,13,13a,13b,14,15b-octadecahydro-1H-chryseno[1,2-f]indazole-4-a-carboxylic acid]",260 to 280 °C (dec.)
4,"CC1(C)CC[C@]2(C(=O)O)CC[C@]3(C)C(=C(c4ccc5c(c4)CCN5)CC4[C@@]5(C)Cc6c(n[nH]c6N)C(C)(C)[C@@H]5CC[C@]43C)[C@@H]2C1 (stereo partly drawn) (as salt: ammonium) [Example 11, (4aS,6aS,6bR,13aR)-12-Amino-15-(indolin-5-yl)-2,2,6a,6b,9,9,13a-heptamethyl-2,3,4,4a,5,6,6a,6b,7,8,8a,9,11,13,13a,13b,14,15b-octadecahydro-1H-chryseno[1,2-f]indazole-4-a-carboxylic acid]",170 to 190 °C (dec.)
5,"C[C@@H]1c2n[nH]c(N)c2C[C@]2(C)C3CC=C4[C@@H]5CC(C)(C)CC[C@]5(C(=O)O)CC[C@@]4(C)[C@]3(C)CC[C@@H]12 (stereo partly drawn) (as salt: ammonium) [Example 3, (4aS,6aS,6bR,8aS,9S,13aS,15bS)-12-Amino-2,2,6a,6b,9,13a-hexamethyl-2,3,4,4a,5,6,6a,6b,7,8,8a,9,11,13,13a,13b,14,15b-octadecahydro-1H-chryseno[1,2-f]indazole-4-a-carboxylic acid]",> 300 °C
6,"CC1(C)CC[C@]2(c3n[nH]c(O)c3N3CCOCC3)CC[C@]3(C)C(=CCC4[C@@]5(C)Cc6c(n[nH]c6N)C(C)(C)[C@@H]5CC[C@]43C)[C@@H]2C1 (stereo partly drawn) (as salt: ammonium) [Compound 88, 3-((4aS,6aS,6bR,13aR)-12-Amino-2,2,6a,6b,9,9,13a-heptamethyl-2,3,4,4a,5,6,6a,6b,7,8,8a,9,11,13,13a,13b,14,15b-octadecahydro-1H-chryseno[1,2-f]indazol-4-a-yl)-4-morpholino-1H-pyrazol-5-ol]",> 300 °C
7,"CN(C)c1ccc(C2=C3[C@@H]4CC(C)(C)CC[C@]4(C(=O)O)CC[C@@]3(C)[C@]3(C)CC[C@H]4C(C)(C)c5n[nH]c(N)c5C[C@]4(C)C3C2)cc1 (stereo partly drawn) (as salt: ammonium) [Example 10, (4aS,6aS,6bR,13aR)-12-Amino-15-(4-(dimethylamino)phenyl)-2,2,6a,6b,9,9,13a-heptamethyl-2,3,4,4a,5,6,6a,6b,7,8,8a,9,11,13,13a,13b,14,15b-octadecahydro-1H-chryseno[1,2-f]indazole-4-a-carboxylic acid]",> 300 °C

# Further lines, results first:
row,melting point,Compound
1,> 300 °C,"CC1=C2[C@@H]3CC(C)(C)CC[C@]3(C(=O)O)CC[C@@]2(C)[C@]2(C)CC[C@H]3C(C)(C)c4n[nH]c(N)c4C[C@]3(C)C2C1 (stereo partly drawn) (as salt: ammonium) [Example 4, (4aS,6aS,6bR,8aR,13aR,15bS)-12-Amino-2,2,6a,6b,9,9,13a,15-octamethyl-2,3,4,4a,5,6,6a,6b,7,8,8a,9,11,13,13a,13b,14,15b-octadecahydro-1H-chryseno[1,2-f]indazole-4-a-carboxylic acid]"
2,> 300 °C,"CCC1=C2[C@@H]3CC(C)(C)CC[C@]3(C(=O)O)CC[C@@]2(C)[C@]2(C)CC[C@H]3C(C)(C)c4n[nH]c(N)c4C[C@]3(C)C2C1 (stereo partly drawn) (as salt: ammonium) [Example 14, (4aS,6aS,6bR,8aR,13aR,15bS)-12-Amino-15-ethyl-2,2,6a,6b,9,9,13a-heptamethyl-2,3,4,4a,5,6,6a,6b,7,8,8a,9,11,13,13a,13b,14,15b-octadecahydro-1H-chryseno[1,2-f]indazole-4-a-carboxylic acid]"
3,275 to 295 °C (dec.),"CC1(C)CC[C@]2(C(=O)Nc3cc(O)[nH]n3)CC[C@]3(C)C(=CCC4[C@@]5(C)Cc6c(n[nH]c6N)C(C)(C)C5CC[C@]43C)C2C1 (stereo partly drawn) (as salt: ammonium) [Compound 66, (4aS,6aS,6bR,13aR)-12-Amino-N-(5-hydroxy-1H-pyrazol-3-yl)-2,2,6a,6b,9,9,13a-heptamethyl-2,3,4,4a,5,6,6a,6b,7,8,8a,9,11,13,13a,13b,14,15b-octadecahydro-1H-chryseno[1,2-f]indazole-4-a-carboxamide]"
4,280 to 300 °C (dec.),"CC1(C)CC[C@]2(C(=O)Nc3nnc(N)s3)CC[C@]3(C)C(=CCC4[C@@]5(C)Cc6c(n[nH]c6N)C(C)(C)C5CC[C@]43C)C2C1 (stereo partly drawn) (as salt: ammonium) [Compound 71, (4aS,6aS,6bR,13aR)-12-Amino-N-(5-amino-1,3,4-thiadiazol-2-yl)-2,2,6a,6b,9,9,13a-heptamethyl-2,3,4,4a,5,6,6a,6b,7,8,8a,9,11,13,13a,13b,14,15b-octadecahydro-1H-chryseno[1,2-f]indazole-4-a-carboxamide]"
5,250 to 270 °C (dec.),"CC1(C)CC[C@]2(C(=O)O)CC[C@]3(C)C(=C(c4ccco4)CC4[C@@]5(C)Cc6c(n[nH]c6N)C(C)(C)[C@@H]5CC[C@]43C)[C@@H]2C1 (stereo partly drawn) (as salt: ammonium) [Example 7, (4aS,6aS,6bR,13aR)-12-Amino-15-(furan-2-yl)-2,2,6a,6b,9,9,13a-heptamethyl-2,3,4,4a,5,6,6a,6b,7,8,8a,9,11,13,13a,13b,14,15b-octadecahydro-1H-chryseno[1,2-f]indazole-4-a-carboxylic acid]"
6,260 to 280 °C (dec.),"CC1(C)CC[C@]2(C(=O)n3cnc(S)n3)CC[C@]3(C)C(=CCC4[C@@]5(C)Cc6c(n[nH]c6N)C(C)(C)C5CC[C@]43C)C2C1 (stereo partly drawn) (as salt: ammonium) [Compound 76, ((4aS,6aS,6bR,13aR)-12-Amino-2,2,6a,6b,9,9,13a-heptamethyl-2,3,4,4a,5,6,6a,6b,7,8,8a,9,11,13,13a,13b,14,15b-octadecahydro-1H-chryseno[1,2-f]indazol-4-a-yl)(3-mercapto-1H-1,2,4-triazol-1-yl)methanone]"
7,230 to 250 °C (dec.),"CC1(C)CC[C@]2(C(=O)n3ccnc3N)CC[C@]3(C)C(=CCC4[C@@]5(C)Cc6c(n[nH]c6N)C(C)(C)C5CC[C@]43C)C2C1 (stereo partly drawn) (as salt: ammonium) [Compound 73, (2-Amino-1H-imidazol-1-yl)((4aS,6aS,6bR,13aR)-12-amino-2,2,6a,6b,9,9,13a-heptamethyl-2,3,4,4a,5,6,6a,6b,7,8,8a,9,11,13,13a,13b,14,15b-octadecahydro-1H-chryseno[1,2-f]indazol-4-a-yl)methanone]"
8,250 to 270 °C (dec.),"Cc1nnc(S)n1NC(=O)[C@]12CCC(C)(C)CC1C1=CCC3[C@@]4(C)Cc5c(n[nH]c5N)C(C)(C)C4CC[C@@]3(C)[C@]1(C)CC2 (stereo partly drawn) (as salt: ammonium) [Compound 77, (4aS,6aS,6bR,13aR)-12-Amino-N-(3-mercapto-5-methyl-4H-1,2,4-triazol-4-yl)-2,2,6a,6b,9,9,13a-heptamethyl-2,3,4,4a,5,6,6a,6b,7,8,8a,9,11,13,13a,13b,14,15b-octadecahydro-1H-chryseno[1,2-f]indazole-4-a-carboxamide]"
9,250 to 260 °C (dec.),"CC1(C)CC[C@]2(c3n[nH]c(O)c3CCN)CC[C@]3(C)C(=CCC4[C@@]5(C)Cc6c(n[nH]c6N)C(C)(C)[C@@H]5CC[C@]43C)[C@@H]2C1 (stereo partly drawn) (as salt: ammonium) [Compound 84, 3-((4aS,6aS,6bR,13aR)-12-Amino-2,2,6a,6b,9,9,13a-heptamethyl-2,3,4,4a,5,6,6a,6b,7,8,8a,9,11,13,13a,13b,14,15b-octadecahydro-1H-chryseno[1,2-f]indazol-4-a-yl)-4-(2-aminoethyl)-1H-pyrazol-5-ol]"
10,> 300 °C,"CC1(C)CC[C@]2(C(=O)Nc3nnc(S)s3)CC[C@]3(C)C(=CCC4[C@@]5(C)Cc6c(n[nH]c6N)C(C)(C)C5CC[C@]43C)C2C1 (stereo partly drawn) (as salt: ammonium) [Compound 74, (4aS,6aS,6bR,13aR)-12-Amino-N-(5-mercapto-1,3,4-thiadiazol-2-yl)-2,2,6a,6b,9,9,13a-heptamethyl-2,3,4,4a,5,6,6a,6b,7,8,8a,9,11,13,13a,13b,14,15b-octadecahydro-1H-chryseno[1,2-f]indazole-4-a-carboxamide]"

# Tested on: P. aeruginosa biofilms
# Assay: Biofilm growth assay (spreading biofilm on semi-solid agar), P. aeruginosa
# Format: cell-based
# Conditions: Pseudomonas aeruginosa, biofilm growth assay, overnight 37° C., vs negative controls; Tables 1-5; read-out: P. aeruginosa: concentration that reduces the area of the spreading biofilm by greater than or equal to 85%
# How it was run: as §1
row,Compound,IC85 [µg/mL]
1,"CC1(C)CC[C@]2(C(=O)Nc3nnc(N)s3)CC[C@]3(C)C(=CCC4[C@@]5(C)Cc6c(n[nH]c6N)C(C)(C)C5CC[C@]43C)C2C1 (stereo partly drawn) [Compound 71, (4aS,6aS,6bR,13aR)-12-Amino-N-(5-amino-1,3,4-thiadiazol-2-yl)-2,2,6a,6b,9,9,13a-heptamethyl-2,3,4,4a,5,6,6a,6b,7,8,8a,9,11,13,13a,13b,14,15b-octadecahydro-1H-chryseno[1,2-f]indazole-4-a-carboxamide]",0.5
